# Source: patent US11401254B2, “Substituted thiophenecarboxamides and analogues as antibacterials agents” (Bayer Aktiengesellschaft, priority 2018, dated 2022)
# Columns and labels:
# [1] = Log P by HPLC on reversed phase columns (EEC directive 79/831 Annex V.A8); type: physicochemical; details: for chromatographic logP: reversed phase HPLC columns
# Procedure: In the above tables, measurement of Log P values was performed according to EEC directive 79/831 Annex V.A8 by HPLC (High Performance Liquid Chromatography) on reversed phase columns with the following methods: • ^[a]
# If more than one Log P value is available within the same method, all the values are given and separated by “+”.
# Calibration was done with straight-chain alkan2-ones (with 3 to 16 carbon atoms) with known Log P values (measurement of Log P values using retention times with linear interpolation between successive alkanones). Lambda-max-values were determined using UV-spectra from 200 nm to 400 nm and the peak values of the chromatographic signals.
# [2] = tested on: Xanthomonas campestris pv. campestris; assay: Xanthomonas campestris pv. campestris in vitro cell test (bacteria growth in liquid culture); type: cell-based; details: 20 ppm of tested compound; 24 h of incubation
# Procedure: Example A: Xanthomonas Campestris pv. Campestris In Vitro Cell Test
# Culture medium: LB broth medium (Luria Broth Miller) Sigma
# Inoculum: bacteria suspension
# Compounds to be tested were solubilized in DMSO and the solution used to prepare the required range of concentrations. The final concentration of DMSO used in the assay was ≤1%.
# Inoculum was prepared from a pre-culture of bacteria grown in liquid medium and diluted to the desired optical density (OD).
# Compounds were evaluated for their ability to inhibit bacteria growth in liquid culture assay. The compounds were added in the desired concentrations to culture medium containing the bacteria suspension. After 24 h of incubation, the efficacy of compounds was determined by spectrometric measurement of bacteria growth. Inhibition was determined by comparing the absorbance values in wells containing the compounds with the absorbance in control wells without compounds.
# [3] = tested on: Xanthomonas campestris pv. campestris; assay: In vivo preventive test on Xanthomonas campestris pv. campestris (black rot on cabbage); details: Example C comparative table; same conditions as described in Example B; concentration not given
# Procedure: Example B: In Vivo Preventive Test on Xanthomonas campestris pv. Campestris (Black Rot on Cabbage)
# The tested compounds were prepared by homogenization in a mixture of acetone/Dimethyl sulfoxide/Tween®, and then diluted with water to obtain the desired concentration.
# The young plants of cabbage were treated by spraying the compound prepared as described above. Control plants were treated only with an aqueous solution of acetone/Dimethyl sulfoxide/Tween®.
# After 72 hours, the plants were contaminated by spraying the leaves with an aqueous bacteria suspension of Xanthomonas campestris pv. campestris. The contaminated cabbage plants were incubated for 8 or 10 days at 27° C. at 95% relative humidity.
# The test was evaluated 8 or 10 days after the inoculation. 0% means an efficacy which corresponds to that of the control plants while an efficacy of 100% means that no disease was observed.
# Compounds CMP3, CMP4, CMP5 and CMP6 were tested in an in vivo preventive test on Xanthomonas campestris pv. campestris (black rot on cabbage) in the same conditions as described in Example B.
# [4] = method [a]: LC-UV, acidic range, 0.1% formic acid in water and acetonitrile as eluent
# [5] = value given in preparation example, method variant not stated
"chromatographic logP [1, 4]","chromatographic logP [1, 5]","LogP [1, 4]",Compound,direct activity (inhibition of bacteria growth) [2],Efficacy (%) [3] [%]
2.92,2.92,–,"Cc1c(C(=O)N[C@H](C(=O)O)C(C)C)sc(Br)c1Br (racemic) [I.07, N-[(4,5-dibromo-3-methyl-2-thienyl)carbonyl]-valine]",no direct activity,–
–,–,–,"CCOC(=O)C(NC(=O)c1sc(Br)c(Br)c1Br)C(C)C (centres unmarked) [CMP3, reference compound]",–,33
–,–,–,"CCOC(=O)CNC(=O)c1sc(Br)c(Br)c1Br [CMP4, reference compound]",–,0
3.19,3.22,–,"CCOC(=O)C1(NC(=O)c2sc(Br)c(Br)c2C)CC1 [I.01, ethyl 1-{[(4,5-dibromo-3-methyl-2-thienyl)carbonyl]amino}cyclopropanecarboxylate]",no direct activity,–
2.9,2.95,–,"CCOC(=O)CNC(=O)c1sc(Cl)c(Cl)c1C [I.03, ethyl N-[(4,5-dichloro-3-methyl-2-thienyl)carbonyl]glycinate]",no direct activity,–
–,–,4.56^[a],CCOC(=O)C(CC(C)C)NC(=O)c1sc(Br)c(Br)c1C (centres unmarked) [I.05],no direct activity,–
–,–,4.32^[a],CCOC(=O)[C@@H](NC(=O)c1sc(Br)c(Br)c1C)C(C)C [I.08],no direct activity,–
–,–,2.05^[a],Cc1c(C(=O)NCC(=O)O)sc(Br)c1Br [I.10],no direct activity,–
–,–,3.87^[a],COC(=O)[C@@H](NC(=O)c1sc(Br)c(Br)c1C)C(C)C [I.11],no direct activity,–
–,–,4.06^[a],C#CCOC(=O)C(NC(=O)c1sc(Br)c(Br)c1C)C(C)C (centres unmarked) [I.13],no direct activity,–
–,–,3.69^[a],Cc1c(C(=O)NC(C(=O)OCC#N)C(C)C)sc(Br)c1Br (centres unmarked) [I.15],no direct activity,–
–,–,3.42^[a],Cc1c(C(=O)NC(C(=O)OC2CS(=O)(=O)C2)C(C)C)sc(Br)c1Br (centres unmarked) [I.18],no direct activity,–
–,–,3.78^[a],Cc1c(C(=O)NC(C(=O)OC2CCOC2)C(C)C)sc(Br)c1Br (centres unmarked) [I.19],no direct activity,–
–,–,5.78^[a],Cc1c(C(=O)NC(C(=O)OC[Si](C)(C)C)C(C)C)sc(Br)c1Br (centres unmarked) [I.20],no direct activity,–
–,–,3.39^[a],CCOC(=O)C(C)NC(=O)c1sc(Br)c(Br)c1C (centres unmarked) [I.21],no direct activity,–
–,–,3.33^[a],CCOC(=O)C(Cc1ccc(O)cc1)NC(=O)c1sc(Br)c(Br)c1C (centres unmarked) [I.23],no direct activity,–
–,–,3.94^[a],CCOC(=O)[C@H](CCSC)NC(=O)c1sc(Cl)c(Cl)c1C [I.24],no direct activity,–
–,–,4.46^[a],CCOC(=O)[C@H](Cc1ccccc1)NC(=O)c1sc(Cl)c(Cl)c1C [I.26],no direct activity,–
–,–,3.31^[a],CCOC(=O)C(C)NC(=O)c1sc(Cl)c(Cl)c1C (centres unmarked) [I.27],no direct activity,–
–,–,3.79^[a],COC(=O)[C@@H](NC(=O)c1sc(Cl)c(Cl)c1C)C(C)C [I.29],no direct activity,–
–,–,3.55^[a],COC(=O)[C@H](CCSC)NC(=O)c1sc(Cl)c(Cl)c1C [I.30],no direct activity,–
–,–,2.51^[a],COC(=O)CNC(=O)c1sc(Cl)c(Cl)c1C [I.31],no direct activity,–

"chromatographic logP [1, 4]","chromatographic logP [1, 5]","LogP [1, 4]",Compound,direct activity (inhibition of bacteria growth) [2],Efficacy (%) [3] [%]
–,–,4.54^[a],CCOC(=O)[C@H](CC(C)C)NC(=O)c1sc(Cl)c(Cl)c1C [I.33],no direct activity,–
–,–,3.76^[a],Cc1c(C(=O)NCC(=O)OCc2ccccc2)sc(Cl)c1Cl [I.34],no direct activity,–
–,–,3.55^[a],COC(=O)C(CCSC)NC(=O)c1sc(Cl)c(Cl)c1C (centres unmarked) [I.35],no direct activity,–
–,–,3.55^[a],COC(=O)[C@@H](CCSC)NC(=O)c1sc(Cl)c(Cl)c1C [I.36],no direct activity,–
–,–,4.51^[a],CCOC(=O)C(CC(C)C)NC(=O)c1sc(Cl)c(Cl)c1C (centres unmarked) [I.37],no direct activity,–
–,–,3.29^[a],CCOC(=O)C(Cc1ccc(O)cc1)NC(=O)c1sc(Cl)c(Cl)c1C (centres unmarked) [I.39],no direct activity,–
–,–,3.29^[a],Cc1c(C(=O)NCC(=O)OC(C)C)sc(Cl)c1Cl [I.41],no direct activity,–
–,–,3.08^[a],CCOC(=O)C1(NC(=O)c2sc(Cl)c(Cl)c2C)CC1 [I.43],no direct activity,–
–,–,3.79^[a],COC(=O)C(NC(=O)c1sc(Cl)c(Cl)c1C)C(C)C (centres unmarked) [I.46],no direct activity,–
–,–,3.94^[a],CCOC(=O)C(CCSC)NC(=O)c1sc(Cl)c(Cl)c1C (centres unmarked) [I.47],no direct activity,–
–,–,3.35^[a],CCCOC(=O)CNC(=O)c1sc(Cl)c(Cl)c1C [I.48],no direct activity,–
–,–,4.77^[a],Cc1c(C(=O)NC(C(=O)OC(C)C)C(C)C)sc(Br)c1Br (centres unmarked) [I.49],no direct activity,–
–,–,2.26^[a],Cc1c(C(=O)NC2(C(=O)O)CC2)sc(Cl)c1Cl [I.51],no direct activity,–
–,–,4.98^[a],Cc1c(C(=O)NC(C(=O)OC2CCC2)C(C)C)sc(Br)c1Br (centres unmarked) [I.53],no direct activity,–
–,–,4.77^[a],CCCOC(=O)C(NC(=O)c1sc(Br)c(Br)c1C)C(C)C (centres unmarked) [I.54],no direct activity,–
–,–,5.25^[a],CCCCOC(=O)C(NC(=O)c1sc(Br)c(Br)c1C)C(C)C (centres unmarked) [I.55],no direct activity,–
–,–,4.37^[a],Cc1c(C(=O)NC(C(=O)OC2CC2)C(C)C)sc(Br)c1Br (centres unmarked) [I.56],no direct activity,–
–,–,5.03^[a],Cc1c(C(=O)NC(C(=O)OCc2ccccc2)C(C)C)sc(Br)c1Br (centres unmarked) [I.57],no direct activity,–
–,–,4.46^[a],C=CCOC(=O)C(NC(=O)c1sc(Br)c(Br)c1C)C(C)C (centres unmarked) [I.58],no direct activity,–
–,–,4.51^[a],Cc1c(C(=O)NC(C(=O)OCC(F)(F)F)C(C)C)sc(Br)c1Br (centres unmarked) [I.59],no direct activity,–
–,–,4.85^[a],Cc1c(C(=O)NC(C(=O)Oc2ccccc2)C(C)C)sc(Br)c1Br (centres unmarked) [I.60],no direct activity,–
–,–,5.25^[a],Cc1c(C(=O)NC(C(=O)OC(C)(C)C)C(C)C)sc(Br)c1Br (centres unmarked) [I.61],no direct activity,–

Compound,"chromatographic logP [1, 4]","chromatographic logP [1, 5]","LogP [1, 4]",direct activity (inhibition of bacteria growth) [2],Efficacy (%) [3] [%]
Cc1c(C(=O)NC(C(=O)OCC(C)C)C(C)C)sc(Br)c1Br (centres unmarked) [I.14],–,–,5.22^[a],no direct activity,–
Cc1c(C(=O)NC(C(=O)OC2CSC2)C(C)C)sc(Br)c1Br (centres unmarked) [I.17],–,–,4.67^[a],no direct activity,–
Cc1c(C(=O)NCC(=O)OC(C)(C)C)sc(Cl)c1Cl [I.28],–,–,3.77^[a],no direct activity,–
CCOC(=O)C(Cc1ccccc1)NC(=O)c1sc(Cl)c(Cl)c1C (centres unmarked) [I.38],–,–,4.46^[a],no direct activity,–
CCOC(=O)[C@@H](C)NC(=O)c1sc(Cl)c(Cl)c1C [I.42],–,–,3.31^[a],no direct activity,–
CCOC(=O)[C@@H](Cc1ccccc1)NC(=O)c1sc(Cl)c(Cl)c1C [I.45],–,–,4.46^[a],no direct activity,–
